Assay results: patent publication US11192914B2, “Alkyne containing nucleotide and nucleoside therapeutic compositions and uses related thereto” (Emory University, priority 2016, dated 2021)
Read-outs that look alike come from different tables or passages of the source.

Experiments:
[1] = test system: RSV; assay: Antiviral assay RSV; assay type: cell-based; conditions: human respiratory syncytial virus, Huh-7, read-out: RSV EC50
Protocol: Cell Preparation-HEp2 cells (human epithelial cells, ATCC catalog #CCL-23) were passaged in DMEM supplemented with 10% FBS, 2 mM L-glutamine, 100 U/mL penicillin, 100 μg/mL streptomycin 1 mM sodium pyruvate, and 0.1 mM NEAA, T-75 flasks prior to use in the antiviral assay. On the day preceding the assay, the cells were split 1:2 to assure they were in an exponential growth phase at the time of infection. Total cell and viability quantification was performed using a hemocytometer and Trypan Blue dye exclusion. Cell viability was greater than 95% for the cells to be utilized in the assay. The cells were resuspended at 1×10^4 cells per well in tissue culture medium and added to flat bottom microtiter plates in a volume of 100 μL. The plates were incubated at 37° C./5% CO2 overnight to allow for cell adherence. […] Virus was resuspended and diluted into assay medium (DMEM supplemented with 2% heat-inactivated FBS, 2 mM L-glutamine, 100 U/mL penicillin, 100 μg/mL streptomycin, 1 mM sodium pyruvate, and 0.1 mM NEAA) such that the amount of virus added to each well in a volume of 100 μL was the amount determined to yield 85 to 95% cell killing at 6 days post-infection. Efficacy and Toxicity XTT-Plates were stained and analyzed as previously described for the Dengue cytoprotection assay.

[2] = test system: HRV; assay: Antiviral assay HRV; assay type: cell-based; conditions: HeLa, read-out: HRV EC50
[3] = test system: ZIKV; assay: ZIKV infectious (cytoprotection, XTT) assay; assay type: cell-based; conditions: Zika virus, Huh-7, Cell Line Huh-7 (Example 92); read-out: ZIKV EC50
[4] = test system: DENV2 New Guinea C; assay: Anti-Dengue virus cytoprotection assay; assay type: cell-based, Dengue virus type 2
Protocol: Cell Preparation—BHK21 cells (Syrian golden hamster kidney cells, ATCC catalog #CCL-I 0), Vero cells (African green monkey kidney cells, ATCC catalog #CCL-81), or Huh-7 cells (human hepatocyte carcinoma) were passaged in DMEM supplemented with 10% FBS, 2 mM L-glutamine, 100 U/mL penicillin, and 100 μg/mL streptomycin in T-75 flasks prior to use in the antiviral assay. On the day preceding the assay, the cells were split 1:2 to assure they were in an exponential growth phase at the time of infection. Total cell and viability quantification was performed using a hemocytometer and Trypan Blue dye exclusion. Cell viability was greater than 95% for the cells to be utilized in the assay. The cells were resuspended at 3×10^3 ([…] for Vero cells and Huh-7 cells) cells per well in tissue culture medium and added to flat bottom microtiter plates in a volume of 100 μL. The plates were incubated at 37° C./5% CO2 overnight to allow for cell adherence.
Virus Preparation—The Dengue virus type 2 New Guinea C strain was obtained from ATCC (catalog #VR-1584) and was grown in LLC-MK2 (Rhesus monkey kidney cells; catalog #CCL-7.1) cells for the production of stock virus pools. An aliquot of virus pretitered in BHK21 cells was removed from the freezer (−80° C.) and allowed to thaw slowly to room temperature in a biological safety cabinet. Virus was resuspended and diluted into assay medium (DMEM supplemented with 2% heat-inactivated FBS, 2 mM L-glutamine, 100 U/mL penicillin, and 100 μg/mL streptomycin) such that the amount of virus added to each well in a volume of 100 μL was the amount determined to yield 85 to 95% cell killing at 6 days post-infection.
Plate Format—Each plate contains cell control wells (cells only), virus control wells (cells plus virus), triplicate drug toxicity wells per compound (cells plus drug only), as well as triplicate experimental wells (drug plus cells plus virus).
Efficacy and Toxicity XTT-Following incubation at 37° C. in a 5% CO2 incubator, the test plates were stained with the tetrazolium dye XTT (2,3-bis(2-methoxy-4-nitro-5-sulfophenyl)-5-[(phenylamino)carbonyl]-2H-tetrazolium hydroxide). XTT-tetrazolium was metabolized by the mitochondrial enzymes of metabolically active cells to a soluble formazan product, allowing rapid quantitative analysis of the inhibition of virus-induced cell killing by antiviral test substances. XTT solution was prepared daily as a stock of 1 mg/mL in RPMI 1640. Phenazine methosulfate (PMS) solution was prepared at 0.15 mg/mL in PBS and stored in the dark at −20° C. XTT/PMS stock was prepared immediately before use by adding 40 μL of PMS per ml of XTT solution. Fifty microliters of XTT/PMS was added to each well of the plate and the plate was reincubated for 4 hours at 37° C. Plates were sealed with adhesive plate sealers and shaken gently or inverted several times to mix the soluble formazan product and the plate was read spectrophotometrically at 450/650 nm with a Molecular Devices Vmax plate reader.
Data Analysis —Raw data was collected from the Softmax Pro 4.6 software and imported into a Microsoft Excel spreadsheet for analysis. The percent reduction in viral cytopathic effect compared to the untreated virus controls was calculated for each compound. The percent cell control value was calculated for each compound comparing the drug treated uninfected cells to the uninfected cells in medium alone.

[5] = test system: ZIKV; assay: ZIKV infectious (cytoprotection, XTT) assay; assay type: cell-based, Zika virus; conditions: Zika virus, Vero, Cell Line Vero (Example 92); read-out: ZIKV EC50
Protocol: Vero cells were passaged in DMEM medium in T-75 flasks prior to use in the antiviral assay. On the day preceding the assay, the cells were split 1:2 to assure they were in exponential growth phase at the time of infection. The cells were resuspended at […] cells per well in tissue culture medium and added to flat bottom microtiter plates in a volume of […]. The plates were incubated at 37° C./5% CO2 overnight to allow for cell adherence. Separately, Zika virus was titrated in LLCMK2 cells to define the inoculum for use in the antiviral assay. Virus was diluted in DMEM medium such that the amount of virus added to each well in a volume of […] was the amount determined to achieve 85 to 95% cell killing at 5 days post-infection. Following incubation test plates were stained with XTT dye. XTT solution was prepared daily as a stock solution of 1 mg/mL in RPM11640. PMS solution was prepared at 0.15 mg/mL in PBS and stored in the dark at −20° C. XTT/PMS stock was prepared immediately before use by adding […] of PMS per mL of XTT solution. Fifty microliters of XTT/PMS was added to each well of the plate, and the plate was reincubated for 4 hours at 37° C. Plates were sealed with adhesive plate sealers ad shaken gently to mix the soluble formazan product, and the plate was read spectrophotometrically read 450/650 nm with a Molecular Devices Vmax plate reader. The raw data was collected from Softmax Pro and imported into a Microsoft Excel XLfit4 spreadsheet for analysis using four parameter curve fit calculations.

With `C#CC1(O)C(O)[C@@H](COP(=O)(OCOC(=O)C(C)(C)C)OCOC(=O)C(C)(C)C)O[C@H]1n1ccc(=O)[nH]c1=O` (stereo partly shown) [EIDD-02290] the EC50 [1] was 90000 nM, the EC50 [2] was 50 nM and the EC50 [3] was 310 nM. For the same compound, the EC50 ([4]; DENV2, Huh-7, read-out: DENV2 EC50) was 240 nM, the EC50 ([4]; DENV2, Vero, read-out: DENV2 EC50) was 7560 nM and the EC50 ([4]; DENV2, read-out: DENV2 EC50) was 7760 nM. For the same compound, the EC50 [5] was 1060 nM.
